# Data reported in PubChem BioAssay (NCI).
#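 Each compound was tested at five concentrations against cells in 96-well plates for 48 hours. Abbreviation: GI50, concentration required for 50% inhibition of growth. TGI: total growth inhibition.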
# Legend:
# Assay in all cases: NCI tumour cell line growth inhibition, 48 h
# 786-0 renal = test system: 786-0 renal
# SK-MEL-28 melanoma = test system: SK-MEL-28 melanoma
# UACC-62 melanoma = test system: UACC-62 melanoma
# HCT-116 colon = test system: HCT-116 colon
# KM12 colon = test system: KM12 colon
# K-562 leukemia = test system: K-562 leukemia
# OVCAR-5 ovarian = test system: OVCAR-5 ovarian
# U251 CNS = test system: U251 CNS
# T-47D breast = test system: T-47D breast
# SW-620 colon = test system: SW-620 colon
# DU-145 prostate = test system: DU-145 prostate
# EKVX NSCLC = test system: EKVX NSCLC
# ACHN renal = test system: ACHN renal
# SNB-19 CNS = test system: SNB-19 CNS
# MOLT-4 leukemia = test system: MOLT-4 leukemia
# HOP-62 NSCLC = test system: HOP-62 NSCLC
# RPMI-8226 leukemia = test system: RPMI-8226 leukemia
# NCI-H226 lung = test system: NCI-H226 lung
# BT-549 breast = test system: BT-549 breast
# TK-10 renal = test system: TK-10 renal
# NCI-H23 lung = test system: NCI-H23 lung
# SK-MEL-5 melanoma = test system: SK-MEL-5 melanoma
# MDA-MB-231 breast = test system: MDA-MB-231 breast
# CCRF-CEM leukemia = test system: CCRF-CEM leukemia
# SNB-75 CNS = test system: SNB-75 CNS
# OVCAR-4 ovarian = test system: OVCAR-4 ovarian
# IGROV1 ovarian = test system: IGROV1 ovarian
# HCC-2998 colon = test system: HCC-2998 colon
# NCI-H522 lung = test system: NCI-H522 lung
structure (smiles),measurement,setting,value
Oc1ccc(CSc2nnc(-c3ccc(Cl)cc3)n2-c2ccccc2)c2cccnc12,GI50,786-0 renal,1.17 µM
same,TGI,786-0 renal,> 100 µM
same,GI50,SK-MEL-28 melanoma,1.15 µM
same,TGI,SK-MEL-28 melanoma,> 100 µM
same,GI50,UACC-62 melanoma,1.49 µM
same,TGI,UACC-62 melanoma,> 100 µM
same,GI50,HCT-116 colon,0.375 µM
same,TGI,HCT-116 colon,> 100 µM
same,GI50,KM12 colon,0.877 µM
same,TGI,KM12 colon,> 100 µM
same,GI50,K-562 leukemia,0.357 µM
same,TGI,K-562 leukemia,> 100 µM
same,GI50,OVCAR-5 ovarian,5.73 µM
same,TGI,OVCAR-5 ovarian,> 100 µM
same,GI50,U251 CNS,0.327 µM
same,TGI,U251 CNS,> 22.1 µM
same,GI50,T-47D breast,1.92 µM
same,TGI,T-47D breast,> 100 µM
same,GI50,SW-620 colon,0.436 µM
same,TGI,SW-620 colon,> 100 µM
same,GI50,DU-145 prostate,0.762 µM
same,TGI,DU-145 prostate,> 100 µM
same,GI50,EKVX NSCLC,1.38 µM
same,TGI,EKVX NSCLC,> 100 µM
same,GI50,ACHN renal,0.532 µM
same,TGI,ACHN renal,> 100 µM
same,GI50,SNB-19 CNS,0.434 µM
same,TGI,SNB-19 CNS,> 100 µM
same,GI50,MOLT-4 leukemia,0.592 µM
same,TGI,MOLT-4 leukemia,> 100 µM
same,GI50,HOP-62 NSCLC,0.544 µM
same,TGI,HOP-62 NSCLC,> 100 µM
same,GI50,RPMI-8226 leukemia,0.456 µM
same,TGI,RPMI-8226 leukemia,> 100 µM
same,GI50,NCI-H226 lung,4.98 µM
same,TGI,NCI-H226 lung,> 100 µM
same,GI50,BT-549 breast,0.731 µM
same,TGI,BT-549 breast,> 100 µM
same,GI50,TK-10 renal,0.756 µM
same,TGI,TK-10 renal,> 100 µM
same,GI50,NCI-H23 lung,0.697 µM
same,TGI,NCI-H23 lung,> 100 µM
same,GI50,SK-MEL-5 melanoma,2.22 µM
same,TGI,SK-MEL-5 melanoma,> 100 µM
same,GI50,MDA-MB-231 breast,5.84 µM
same,TGI,MDA-MB-231 breast,> 100 µM
same,GI50,CCRF-CEM leukemia,0.488 µM
same,TGI,CCRF-CEM leukemia,> 100 µM
same,GI50,SNB-75 CNS,0.802 µM
same,TGI,SNB-75 CNS,> 100 µM
same,GI50,OVCAR-4 ovarian,2.07 µM
same,TGI,OVCAR-4 ovarian,> 100 µM
same,GI50,IGROV1 ovarian,0.954 µM
same,TGI,IGROV1 ovarian,> 100 µM
same,GI50,HCC-2998 colon,0.733 µM
same,TGI,HCC-2998 colon,> 100 µM
same,GI50,NCI-H522 lung,1.91 µM
